Data set [1] has as its target T1, human γ-secretase complex, APP as substrate (Homo sapiens, UniProt P49768).
T1 construct: substrate APPC55-Gal4, β-galactosidase reporter
Nature of the data set: β-galactosidase assay of γ-secretase-expressing yeast with related-art GSI, APP substrate. The format is cell-based.
Description: The yeast expressing the γ-secretase complex, the substrate APPC55-Gal4, and the three-finger toxin produced in the foregoing was inoculated in 1.5 mL of a SD-LWU medium, and the resultant was shake-cultured (180 rpm) at 30 °C until its turbidity became from 0.8 to 1.0. After that, the cultured product was centrifuged (15,000 rpm, 3 minutes, room temperature), and cells were recovered. The cells were washed with 1 mL of cooling water, and were then suspended in 30 μL of a Lysis buffer (20 mM Tris-HCl, pH: 8.0, 10 mM MgCl2, 50 mM KCl, 1 mM EDTA, 5% glycerol, and 1 mM DTT), followed by the addition of an appropriate amount of acid-treated glass beads (425 μm to 600 μm, Sigma-Aldrich Co. LLC) thereto. After that, the mixture was stirred with a vortex mixer so that the cells were crushed. The crushed liquid was centrifuged (15,000 rpm, 10 minutes, 4 °C) to provide a lysate. 80 Microliters of 4 mg/ml ortho-nitrophenyl-β-galactoside (ONPG) was added to the mixed liquid of 10 μL of the lysate and 400 μL of a Z buffer (60 mM Na2HPO4, 40 mM NaH2PO4-2H2O, 10 mM KCl, 1 mM MgSO4-7H2O, and 0.27% 2-mercaptoethanol) to start a reaction. […] After that, the absorbance (A420) of nitrophenol produced in the reaction liquid at 420 nm was measured. Further, the protein concentration of the lysate was determined by a Bradford method (Bio-Rad Laboratories, Inc.), and β-galactosidase activity was calculated [β-galactosidase unit/mg protein=1,000×A420/{time (min)×protein concentration (mg/μL)×liquid amount (μL)}].

For data set [2], the target named is T2, human γ-secretase complex, Notch1 as substrate (Homo sapiens, UniProt P49768).
T2 construct: substrate mouse Notch1(1704-1755)-Gal4, β-galactosidase reporter
The data set is described as follows: β-galactosidase assay of γ-secretase-expressing yeast with related-art GSI, Notch substrate. The note with it: yeast (FIG. 7). The format is cell-based.
Description: The yeast expressing the γ-secretase complex, the substrate Notch-Gal4, and the three-finger toxin produced in the foregoing was inoculated in 15 mL of a SD-LWU medium, and the resultant was shake-cultured (180 rpm) at 30 °C until its turbidity became from 0.8 to 1.0. After that, a 1.5 mL aliquot of the cultured product was dispensed and centrifuged (15,000 rpm, 3 minutes, room temperature), and cells were recovered. The cells were washed with 1 mL of cooling water, and were then suspended in 30 μL of a Lysis buffer (20 mM Tris-HCl, pH: 8.0, 10 mM MgCl2, 50 mM KCl, 1 mM EDTA, 5% glycerol, and 1 mM DTT), followed by the addition of an appropriate amount of acid-treated glass beads (425 μm to 600 μm, Sigma-Aldrich Co. LLC) thereto. After that, the mixture was stirred with a vortex mixer so that the cells were crushed. The crushed liquid was centrifuged (15,000 rpm, 10 minutes, 4 °C) to provide a lysate. […] After that, the absorbance (A420) of nitrophenol produced in the reaction liquid at 420 nm was measured. Further, the protein concentration of the lysate was determined by a Bradford method (Bio-Rad Laboratories, Inc.), and β-galactosidase activity was calculated: β-galactosidase unit/mg protein=1,000×A420/{time (min)×protein concentration (mg/μL)×liquid amount (μL)}.

Data set [3] deals with γ-secretase. The note with it: phase III clinical trials; trials stopped; cited from earlier work.
Data set [4] concerns γ-secretase. The note with it: verification experiment; pseudo-inhibitor; cited from earlier work.

As to `C[C@H](NC(=O)Cc1cc(F)cc(F)c1)C(=O)N[C@H](C(=O)OC(C)(C)C)c1ccccc1` [DAPT], the “suppression of the cleavage of the APP” value in data set [1] (yeast (FIG. 7)) is “suppressed the cleavage of each of the APP and the Notch”. In data set [2], the “suppression of the cleavage of the Notch” value was “suppressed the cleavage of each of the APP and the Notch”.
On to `O=S(=O)(N[C@H](CO)C(C(F)(F)F)C(F)(F)F)c1ccc(Cl)s1` [begacestat], for which the “suppression of the cleavage of the APP versus the cleavage of the Notch” value in data set [1] (1 μM, 3 μM, and 10 μM, wild-type yeast and pdr1Δpdr3Δ strain, vs mock with dimethyl sulfoxide (FIG. 7)) was “the suppression of the cleavage of the APP was stronger than the suppression of the cleavage of the Notch”. Also, the APP-specific cleavage-suppressing effect result in data set [1] (yeast, APP versus Notch cleavage (FIG. 7)) is given as “APP-specific inhibition by begacestat was observed”.
For the molecule `NC(=O)[C@@H](CCC(F)(F)F)N(Cc1ccc(-c2ncon2)cc1F)S(=O)(=O)c1ccc(Cl)cc1` [avagacestat], in data set [3], the “serious side effects and deterioration of a cognitive function” value is “serious side effects and the deterioration of a cognitive function were observed”.
Consider `CC(C)[C@H](O)C(=O)N[C@@H](C)C(=O)N[C@@H]1C(=O)N(C)CCc2ccccc21` [semagacestat], for which the “serious side effects and deterioration of a cognitive function” value in data set [3] was “serious side effects and the deterioration of a cognitive function were observed”. In addition, in data set [4], the “discharge of a decomposition product to the outside of a cell” value was “inhibits the discharge of a decomposition product to the outside of a cell” and the “inhibition of Aβ production” value is listed as “does not inhibit Aβ production”.

The record behind these values is US20260347435A1, “y-SECRETASE INHIBITOR, Aß-PEPTIDE PRODUCTION INHIBITOR, AND PHARMACEUTICAL” (priority 2022, published 2026).
